Test results from patent US20050053680A1, “Pediculicidal compound” (priority 2002, published 2005).
Where two headings read alike, the source gives them in different places.

Assays:
[1] = test system: Human lice, Pediculus humanus; details: in vivo
Louse eggs = details: for inhibition of embryo development before eyespot stage (in words): Table 10, Undeveloped; for Number of eggs Half-hatched / Number of eggs Undeveloped: Laurex CS 4.00%, GMS N/SE 2.00%; for Undeveloped % (in brackets, Abbott's correction): corrected; for Undeveloped %: uncorrected; for activity against louse eggs (in words): after correction for hatching failure in the Control Group
[2] = Table 10, H2O vehicle, Laurex CS 4.00% (163 eggs), GMS N/SE 2.00% (176 eggs)
[3] = Table 10, IPA/water vehicle, Laurex CS 4.00% (102 eggs), GMS N/SE 2.00% (145 eggs)
[4] = Table 10, IPA/water vehicle, IPA/H2O mix 40.5

## CCCCCCCCCCCCCCCC[N+](C)(C)C.[Cl-] [Dehyquart ACA, Cetrimonium chloride]
[1]
  Mortality % (Killed): 20 (10) %
  Mortality % Total: 20 (10) %
  Number of eggs: 34
  Number of lice Killed: 2
  Number of lice Moribund: 2

## CCCCCCCCCCCCCCCCCC(=O)OCC(O)CO (stereo not drawn) [GMS N/SE, Glyceryl stearate]
Louse eggs
  inhibition of embryo development before eyespot stage (in words): activity to inhibit the development of the embryo
Louse eggs; [2]
  Number of eggs Hatched: 135
Louse eggs; Table 10, H2O vehicle
  Number of eggs Half-hatched: 7
  Number of eggs Undeveloped: 27
  Undeveloped % (in brackets, Abbott's correction): 0%
  Undeveloped %: 15.3%
Louse eggs; [3]
  Number of eggs Hatched: 45
Louse eggs; Table 10, IPA/water vehicle
  Number of eggs Half-hatched: 1
  Number of eggs Undeveloped: 93
  Undeveloped % (in brackets, Abbott's correction): 39.7%
Louse eggs; [4]
  Undeveloped %: 64.1%
Louse eggs; Table 10
  activity against louse eggs (in words): activity could be detected
[1]
  Number of lice Moribund: 0
  pediculicidal activity (in words): showed any activity

## CCCCCCCCCCCCCCCCCCO [Laurex CS, Cetearyl alcohol]
Louse eggs
  inhibition of embryo development before eyespot stage (in words): activity to inhibit the development of the embryo
Louse eggs; [2]
  Number of eggs Hatched: 117
Louse eggs; Table 10, H2O vehicle
  Number of eggs Half-hatched: 1
  Number of eggs Undeveloped: 34
  Undeveloped % (in brackets, Abbott's correction): 0%
  Undeveloped %: 20.9%
Louse eggs; [3]
  Number of eggs Hatched: 19
Louse eggs; Table 10, IPA/water vehicle
  Number of eggs Half-hatched: 1
  Number of eggs Undeveloped: 70
  Undeveloped % (in brackets, Abbott's correction): 47.2%
Louse eggs; [4]
  Undeveloped %: 68.6%
Louse eggs; after correction for Control Group, Table 10
  kill of louse eggs: > 50%
Louse eggs; Table 10
  activity against louse eggs (in words): activity could be detected
[1]
  pediculicidal activity (in words): killed all lice and prevented them from laying any eggs
  pediculicidal activity at different time exposures (in words): some activity can be demonstrated from 30 minutes application

## Liquid Paraffin [reference compound]
[1]
  Mortality % (Killed): 100 (100) %
  Mortality % Total: 100 (100) %

## Methylparaben & Propylparaben & Ethylparaben [Nipasept]
[1]
  Mortality % (Killed): 20 (15) %
  Mortality % Total: 20 (15) %

## Thymus Vulgaris (Thyme) extract [Thyme Extract]
[1]
  Mortality % (Killed): 21 (5) %
  Mortality % Total: 21 (5) %

## Urtica Dioica (Nettle) extract [Nettle Extract]
[1]
  Mortality % (Killed): 24 (14) %
  Mortality % Total: 24 (14) %
